# Reference: ChEMBL document CHEMBL4433239, “Synthesis of N'-propylhydrazide analogs of hydroxamic inhibitors of histone deacetylases (HDACs) and evaluation of their impact on activities of HDACs and replication of hepatitis C virus (HCV)” (Bioorg Med Chem Lett, 2019)
# Active and inactive are the calls of the source. The calls are words filed in the database; no cut-off is given here.
# Experiments:
# Hepatitis C virus = assay: Antiviral activity against HCV infected in human HuH7-luc/neo cells assessed as inhibition of DNA replication incubated for 3 days by luciferase reporter gene assay; type: functional, organism-based, Hepacivirus hominis; settings: 72 h
# [1] = Cytotoxicity against human HuH7 cells assessed as reduction in cell viability incubated for 3 days by MTT assay; type: cell-based, Huh-7
# [2] = Therapeutic index, ratio of CC50 for human HuH7 cells to EC50 for antiviral activity against HCV infected in human HuH7-luc/neo cells assessed as inhibition of DNA replication i
# [3] = molecular target: T1, Protein deacetylase HDAC6 (Homo sapiens, UniProt Q9UBN7); assay: Inhibition of human recombinant HDAC 6 by HDAC-Glo luminescent assay
# T1 sequence (Q9UBN7 whole entry): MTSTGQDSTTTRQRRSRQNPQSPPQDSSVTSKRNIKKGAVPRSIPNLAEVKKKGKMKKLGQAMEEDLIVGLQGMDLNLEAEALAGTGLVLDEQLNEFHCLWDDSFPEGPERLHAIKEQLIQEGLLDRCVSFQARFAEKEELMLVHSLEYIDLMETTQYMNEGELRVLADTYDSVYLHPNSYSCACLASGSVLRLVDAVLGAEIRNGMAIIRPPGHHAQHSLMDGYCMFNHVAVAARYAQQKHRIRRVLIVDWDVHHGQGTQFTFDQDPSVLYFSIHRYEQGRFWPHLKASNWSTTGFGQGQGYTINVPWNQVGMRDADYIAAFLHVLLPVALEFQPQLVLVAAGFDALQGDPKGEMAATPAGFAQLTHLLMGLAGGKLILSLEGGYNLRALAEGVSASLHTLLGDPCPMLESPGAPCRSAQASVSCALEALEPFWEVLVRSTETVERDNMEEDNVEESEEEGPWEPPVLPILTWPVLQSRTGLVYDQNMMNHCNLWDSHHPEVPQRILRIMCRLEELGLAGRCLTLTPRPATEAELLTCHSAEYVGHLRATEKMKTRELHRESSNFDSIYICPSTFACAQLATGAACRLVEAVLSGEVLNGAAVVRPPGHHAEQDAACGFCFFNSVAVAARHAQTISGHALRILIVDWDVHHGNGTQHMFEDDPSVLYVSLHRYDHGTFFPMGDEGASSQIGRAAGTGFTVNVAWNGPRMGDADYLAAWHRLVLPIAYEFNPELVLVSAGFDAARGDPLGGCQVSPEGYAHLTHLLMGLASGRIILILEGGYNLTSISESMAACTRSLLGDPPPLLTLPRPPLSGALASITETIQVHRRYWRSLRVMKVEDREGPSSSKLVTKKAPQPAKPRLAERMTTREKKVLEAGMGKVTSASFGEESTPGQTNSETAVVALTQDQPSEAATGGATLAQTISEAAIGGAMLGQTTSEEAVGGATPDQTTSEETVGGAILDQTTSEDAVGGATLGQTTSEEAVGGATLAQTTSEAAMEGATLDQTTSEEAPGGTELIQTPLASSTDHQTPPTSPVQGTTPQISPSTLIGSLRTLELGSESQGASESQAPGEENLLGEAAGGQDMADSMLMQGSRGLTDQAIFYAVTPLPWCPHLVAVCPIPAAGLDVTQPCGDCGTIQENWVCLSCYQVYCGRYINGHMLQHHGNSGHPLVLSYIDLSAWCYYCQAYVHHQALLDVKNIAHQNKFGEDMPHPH
# [4] = molecular target: Histone deacetylase 3 (Homo sapiens) (UniProt O15379); assay: Inhibition of HDAC3 in human Huh7-luc/neo cells assessed as increase in histone H3 K9 acetylation incubated for 24 hrs by Western blot analysis
# Histone deacetylase 3 (Homo sapiens), sequence (O15379 whole entry): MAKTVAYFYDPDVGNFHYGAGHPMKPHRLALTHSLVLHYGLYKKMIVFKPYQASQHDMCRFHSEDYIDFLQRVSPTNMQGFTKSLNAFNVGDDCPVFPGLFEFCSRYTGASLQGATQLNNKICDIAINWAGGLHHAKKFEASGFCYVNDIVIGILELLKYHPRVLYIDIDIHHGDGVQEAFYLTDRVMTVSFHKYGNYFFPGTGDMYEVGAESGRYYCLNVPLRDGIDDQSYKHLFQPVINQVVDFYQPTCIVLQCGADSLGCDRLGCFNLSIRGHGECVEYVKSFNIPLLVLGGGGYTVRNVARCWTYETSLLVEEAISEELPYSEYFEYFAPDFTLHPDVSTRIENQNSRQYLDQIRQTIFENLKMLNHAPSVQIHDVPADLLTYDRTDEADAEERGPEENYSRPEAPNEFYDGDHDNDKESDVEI
# [5] = HuH7 cells (CC50) and HCV-infected HuH7-luc/neo cells (EC50)
Structure (SMILES),EC50 (Hepatitis C virus),CC50 at 72 h [1],"selectivity ratio [2, 5]",selectivity ratio [2],IC50 [3],inhibition [4]
CCCNNC(=O)c1ccccc1,5.5 µM,120 µM,22,–,–,–
CCCNNC(=O)/C=C/c1ccccc1,5.4 µM,18 µM,3.3,–,–,–
CCCNNC(=O)c1ccc(Cn2c(C)nc3ccccc32)cc1,0.025 µM,9.9 µM,400,–,–,–
CNNC(=O)c1ccccc1,–,> 1000 µM,–,–,–,–
O=C(/C=C/c1ccccc1)NO,2 µM,20 µM,–,10,–,–
CCCNNC(=O)c1ccc(-c2ccccc2)cc1,1.5 µM,5.9 µM,3.9,–,–,–
O=C(/C=C/c1cccc(S(=O)(=O)Nc2ccccc2)c1)NO [BELINOSTAT],0.19 µM,0.65 µM,–,–,–,–
O=C(CCCCCCC(=O)Nc1ccccc1)NO [VORINOSTAT],–,0.64 µM,–,–,–,–
Cc1nc2ccccc2n1Cc1ccc(C(=O)NO)cc1,0.27 µM,7.9 µM,29,–,–,–
O=C(NO)C1c2ccccc2Oc2ccccc21,0.75 µM,300 µM,400,–,–,–
O=C(CCc1ccccc1)NO,5.2 µM,110 µM,21,–,–,–
CCCNNC(=O)CCc1ccccc1,3.8 µM,96 µM,25,–,–,–
CCCNNC(=O)C1c2ccccc2Oc2ccccc21,–,> 300 µM,–,–,–,–
CCCNNC(=O)CCCCCCC(=O)Nc1ccccc1,1.3 µM,7 µM,5.4,–,–,–
N[C@H](Cc1ccc(Cl)cc1Cl)C(=O)N1Cc2ccccc2C1,–,–,–,–,30 µM,–
CCNNC(=O)c1ccccc1,–,> 1000 µM,–,–,–,–
O=C(NO)c1ccc(-c2ccccc2)cc1,0.4 µM,30 µM,75,–,–,–
CCCNNC(=O)/C=C/c1cccc(S(=O)(=O)Nc2ccccc2)c1,0.55 µM,0.68 µM,1.2,–,–,–
CN1CCc2c(c3ccccc3n2Cc2ccc(C(=O)NO)cc2)C1 [TUBASTATIN A],0.3 µM,[…],–,[…],–,–
O=C(NCC1(c2nc(-c3ccccc3)cs2)CCOCC1)c1cccc(-c2noc(C(F)(F)F)n2)c1,4.5 µM,83 µM,–,18,–,Active
CCCNNC(=O)c1ccc(Cn2c3c(c4ccccc42)CN(C)CC3)cc1,0.24 µM,5.3 µM,22,–,–,–
